Laboratory results: ChEMBL document CHEMBL1201862, “PubChem BioAssay data set” (2004)
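96-well plates; 48 h exposure; 5 concentrations. Endpoints by linear interpolation between flanking doses. Not reached: highest tested concentration assigned. GI50 marks 50% less growth.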 Active and inactive are the calls of the source. No stated cut-off is given here; in the data, active = GI50 up to about 1.1 µM and inactive = higher.

Tests used:
Assay in all cases: NCI anticancer screen, dose series, 48 h
UACC-257 = tested on: UACC-257
SNB-19 = tested on: SNB-19
SK-MEL-28 = tested on: SK-MEL-28
SR = tested on: SR
UACC-62 = tested on: UACC-62
HL-60 = tested on: HL-60
DMS-114 = tested on: DMS-114
RPMI-8226 = tested on: RPMI-8226
U-251 = tested on: U-251
HCT-116 = tested on: HCT-116
COLO 205 = tested on: COLO 205
SF-295 = tested on: SF-295
HCT-15 = tested on: HCT-15
KM-20L2 = tested on: KM-20L2
LXFL 529 = tested on: LXFL 529
XF498 = tested on: XF498
OVCAR-8 = tested on: OVCAR-8
786-0 = tested on: 786-0
ACHN = tested on: ACHN
A498 = tested on: A498
K562 = tested on: K562
HOP-62 = tested on: HOP-62
HCC 2998 = tested on: HCC 2998
LOX IMVI = tested on: LOX IMVI
OVCAR-3 = tested on: OVCAR-3
SW-620 = tested on: SW-620
SF-539 = tested on: SF-539
M19-MEL = tested on: M19-MEL
DLD-1 = tested on: DLD-1
SK-MEL-2 = tested on: SK-MEL-2
CCRF-CEM = tested on: CCRF-CEM
MOLT-4 = tested on: MOLT-4
NCI-H460 = tested on: NCI-H460
NCI-H226 = tested on: NCI-H226
Malme-3M = tested on: Malme-3M
DMS-273 = tested on: DMS-273
SK-MEL-5 = tested on: SK-MEL-5
NCI-H23 = tested on: NCI-H23
SN12C = tested on: SN12C
OVCAR-4 = tested on: OVCAR-4
UO-31 = tested on: UO-31
SNB-75 = tested on: SNB-75
HT-29 = tested on: HT-29
EKVX = tested on: EKVX
IGROV-1 = tested on: IGROV-1
A549 = tested on: A549
M14 = tested on: M14
RXF 393 = tested on: RXF 393
SF-268 = tested on: SF-268
TK-10 = tested on: TK-10
HOP-92 = tested on: HOP-92
MDA-MB-435 = tested on: MDA-MB-435
DU-145 = tested on: DU-145
OVCAR-5 = tested on: OVCAR-5
CAKI-1 = tested on: CAKI-1
NCI-H522 = tested on: NCI-H522
BT-549 = tested on: BT-549
NCI/ADR-RES = tested on: NCI/ADR-RES
SK-OV-3 = tested on: SK-OV-3
MDA-MB-231 = tested on: MDA-MB-231
KM12 = tested on: KM12
Hs-578T = tested on: Hs-578T
MDA-N = tested on: MDA-N
MCF7 = tested on: MCF7
PC-3 = tested on: PC-3
T47D = tested on: T47D

With `CC1(OCc2ccccc2)C(=O)N2C1N(C(=O)OCc1ccccc1)CC2(C)C` (stereo not drawn) the GI50 (UACC-257) was 36600 nM (inactive), the GI50 (SNB-19) was 54200 nM (inactive) and the GI50 (SK-MEL-28) was > 100000 nM (inactive). The GI50 (SR) was 30500 nM (inactive), the GI50 (UACC-62) was 38500 nM (inactive) and the GI50 (HL-60) was 29400 nM (inactive). The GI50 (DMS-114) was 31300 nM (inactive), the GI50 (RPMI-8226) was 27500 nM (inactive) and the GI50 (U-251) was 49300 nM (inactive). For the same compound, the GI50 (HCT-116) was 69800 nM (inactive), the GI50 (COLO 205) was 94600 nM (inactive) and the GI50 (SF-295) was 38500 nM (inactive). The GI50 (HCT-15) was 68100 nM, the GI50 (KM-20L2) was 55800 nM (inactive) and the GI50 (LXFL 529) was 31600 nM (inactive). The GI50 (XF498) was 24800 nM (inactive), the GI50 (OVCAR-8) was 34800 nM (inactive) and the GI50 (786-0) was > 100000 nM (inactive). The GI50 (ACHN) was 61100 nM (inactive), the GI50 (A498) was 56900 nM (inactive) and the GI50 (K562) was 42800 nM (inactive). For the same compound, the GI50 (HOP-62) was 82400 nM (inactive), the GI50 (HCC 2998) was > 100000 nM (inactive) and the GI50 (LOX IMVI) was 46600 nM (inactive). The GI50 (OVCAR-3) was > 100000 nM (inactive), the GI50 (SW-620) was > 100000 nM (inactive) and the GI50 (SF-539) was > 100000 nM (inactive). For the same compound, the GI50 (M19-MEL) was 32100 nM (inactive), the GI50 (DLD-1) was 54300 nM (inactive) and the GI50 (SK-MEL-2) was 69300 nM (inactive). The GI50 (CCRF-CEM) was 35100 nM (inactive), the GI50 (MOLT-4) was 28200 nM (inactive) and the GI50 (NCI-H460) was 42600 nM (inactive). For the same compound, the GI50 (NCI-H226) was 41400 nM (inactive), the GI50 (Malme-3M) was 80000 nM (inactive) and the GI50 (DMS-273) was 53600 nM (inactive). For the same compound, the GI50 (SK-MEL-5) was 17900 nM (inactive), the GI50 (NCI-H23) was 35100 nM (inactive) and the GI50 (SN12C) was > 100000 nM (inactive). The GI50 (OVCAR-4) was > 100000 nM (inactive), the GI50 (UO-31) was 31400 nM (inactive) and the GI50 (SNB-75) was 32400 nM (inactive). The GI50 (HT-29) was 67800 nM (inactive), the GI50 (EKVX) was 67800 nM (inactive) and the GI50 (IGROV-1) was 57300 nM (inactive). The GI50 (A549) was 38800 nM (inactive), the GI50 (M14) was 66800 nM (inactive) and the GI50 (RXF 393) was 67500 nM (inactive). The GI50 (SF-268) was > 100000 nM (inactive) and the GI50 (TK-10) was > 100000 nM (inactive).

With `CC(=O)Nc1ccc2c3c(cc(O)c2c1)N(C(=O)CCCCCCC(=O)N1CC(CCl)c2c1cc(O)c1cc(NC(C)=O)ccc21)CC3CCl` (stereo not drawn) the GI50 (UACC-257) was 10.4 nM (active), the GI50 (SNB-19) was < 10 nM (active) and the GI50 (SK-MEL-28) was 14.8 nM (active). For the same compound, the GI50 (SR) was < 10 nM (active), the GI50 (UACC-62) was < 10 nM (active) and the GI50 (HL-60) was < 10 nM (active). For the same compound, the GI50 (HOP-92) was < 11.7 nM (active), the GI50 (MDA-MB-435) was 12.7 nM (active) and the GI50 (RPMI-8226) was 59 nM (active). For the same compound, the GI50 (U-251) was < 10 nM (active), the GI50 (DU-145) was < 10 nM (active) and the GI50 (HCT-116) was < 10 nM (active). For the same compound, the GI50 (COLO 205) was 10.5 nM (active), the GI50 (OVCAR-5) was 32.5 nM (active) and the GI50 (CAKI-1) was < 15.2 nM (active). The GI50 (SF-295) was < 10 nM (active), the GI50 (NCI-H522) was < 10 nM (active) and the GI50 (HCT-15) was 231 nM. The GI50 (BT-549) was < 10 nM (active), the GI50 (NCI/ADR-RES) was 673 nM (active) and the GI50 (SK-OV-3) was 17 nM (active). For the same compound, the GI50 (OVCAR-8) was < 10 nM (active), the GI50 (MDA-MB-231) was 20.3 nM (active) and the GI50 (786-0) was < 10 nM (active). The GI50 (ACHN) was < 10 nM (active), the GI50 (A498) was < 10 nM (active) and the GI50 (K562) was < 12.5 nM (active). For the same compound, the GI50 (HOP-62) was < 11.6 nM (active), the GI50 (HCC 2998) was < 10 nM (active) and the GI50 (LOX IMVI) was < 10 nM (active). The GI50 (KM12) was 24.9 nM (active), the GI50 (OVCAR-3) was < 10 nM (active) and the GI50 (SW-620) was 15.1 nM (active). The GI50 (SF-539) was < 10 nM (active), the GI50 (SK-MEL-2) was < 10 nM (active) and the GI50 (CCRF-CEM) was < 10 nM (active). The GI50 (MOLT-4) was < 10 nM (active), the GI50 (NCI-H460) was < 10 nM (active) and the GI50 (NCI-H226) was < 10 nM (active). For the same compound, the GI50 (Hs-578T) was 30.6 nM (active), the GI50 (Malme-3M) was < 10 nM (active) and the GI50 (SK-MEL-5) was < 10 nM (active). For the same compound, the GI50 (NCI-H23) was < 10 nM (active), the GI50 (MDA-N) was < 10 nM (active) and the GI50 (SN12C) was < 10 nM (active). For the same compound, the GI50 (OVCAR-4) was 41.9 nM (active), the GI50 (UO-31) was 50.9 nM (active) and the GI50 (SNB-75) was < 10 nM (active). For the same compound, the GI50 (MCF7) was < 10 nM (active), the GI50 (HT-29) was 17.2 nM (active) and the GI50 (PC-3) was < 11.9 nM (active). For the same compound, the GI50 (T47D) was < 10 nM (active), the GI50 (EKVX) was 50.5 nM (active) and the GI50 (IGROV-1) was 15 nM (active). For the same compound, the GI50 (A549) was 11.3 nM (active), the GI50 (M14) was < 10 nM (active) and the GI50 (RXF 393) was < 10 nM (active). The GI50 (SF-268) was < 10 nM (active) and the GI50 (TK-10) was 25.1 nM (active).

For `O=[N+]([O-])c1ccc2c(c1)Nc1c3ccccc3nc3cccc-2c13`, the GI50 (UACC-257) was 16900 nM (inactive), the GI50 (SNB-19) was 17300 nM (inactive) and the GI50 (SK-MEL-28) was 6520 nM (inactive). The GI50 (SR) was 733 nM (active), the GI50 (UACC-62) was 4160 nM (inactive) and the GI50 (HL-60) was 1320 nM (inactive). The GI50 (HOP-92) was 4730 nM (inactive), the GI50 (MDA-MB-435) was 4230 nM (inactive) and the GI50 (RPMI-8226) was 4490 nM (inactive). The GI50 (U-251) was 3180 nM (inactive), the GI50 (DU-145) was 593 nM (active) and the GI50 (HCT-116) was 5380 nM (inactive). The GI50 (COLO 205) was 2680 nM (inactive), the GI50 (OVCAR-5) was 6930 nM (inactive) and the GI50 (CAKI-1) was 4670 nM (inactive). For the same compound, the GI50 (SF-295) was 482 nM (active), the GI50 (NCI-H522) was 3440 nM (inactive) and the GI50 (HCT-15) was 3560 nM. For the same compound, the GI50 (BT-549) was 16300 nM (inactive), the GI50 (NCI/ADR-RES) was 2820 nM (inactive) and the GI50 (SK-OV-3) was 2040 nM (inactive). For the same compound, the GI50 (OVCAR-8) was 1170 nM (inactive), the GI50 (MDA-MB-231) was 2410 nM (inactive) and the GI50 (786-0) was 1020 nM (active). For the same compound, the GI50 (ACHN) was 18100 nM (inactive), the GI50 (A498) was 34500 nM (inactive) and the GI50 (K562) was 2100 nM (inactive). For the same compound, the GI50 (HOP-62) was 2070 nM (inactive), the GI50 (HCC 2998) was 183 nM (active) and the GI50 (LOX IMVI) was 1930 nM (inactive). The GI50 (KM12) was 3570 nM (inactive), the GI50 (OVCAR-3) was 689 nM (active) and the GI50 (SW-620) was 2130 nM (inactive). For the same compound, the GI50 (SF-539) was 12100 nM (inactive), the GI50 (SK-MEL-2) was 15000 nM (inactive) and the GI50 (CCRF-CEM) was 1840 nM (inactive). The GI50 (MOLT-4) was 895 nM (active), the GI50 (NCI-H460) was 789 nM (active) and the GI50 (NCI-H226) was 25900 nM (inactive). The GI50 (Hs-578T) was 6530 nM (inactive), the GI50 (Malme-3M) was 2000 nM (inactive) and the GI50 (SK-MEL-5) was 883 nM (active). For the same compound, the GI50 (NCI-H23) was 4850 nM (inactive), the GI50 (MDA-N) was 3620 nM (inactive) and the GI50 (SN12C) was 11300 nM (inactive). The GI50 (OVCAR-4) was 1430 nM (inactive), the GI50 (UO-31) was 5650 nM (inactive) and the GI50 (SNB-75) was 3610 nM (inactive). The GI50 (MCF7) was 219 nM (active), the GI50 (HT-29) was 3100 nM (inactive) and the GI50 (PC-3) was 2350 nM (inactive). For the same compound, the GI50 (T47D) was 3950 nM (inactive), the GI50 (EKVX) was 11600 nM (inactive) and the GI50 (IGROV-1) was 1470 nM (inactive). For the same compound, the GI50 (A549) was 2160 nM (inactive), the GI50 (M14) was 3210 nM (inactive) and the GI50 (RXF 393) was 8390 nM (inactive). For the same compound, the GI50 (SF-268) was 8610 nM (inactive) and the GI50 (TK-10) was 5380 nM (inactive).
